From patent US20170081383A1, “MELANOCORTIN ANALOGS HAVING ENHANCED ACTIVITY AND TRANSPORT” (Tensive Controls Inc., priority 2012, published 2017)
Entries after “also recorded” stand apart in the source; their conditions may differ. Each block holds one compound with its values, some of them ahead of it. Positions of bridges follow the written chain, without caps; N, C: chain ends. Non-standard residues stand in square brackets, D forms with d. Residues, ends and D or L forms follow the SMILES beside them. No end group written: not given here. β2Val = β2-Val (beta2-Val), beta-amino acid; d2Nal = N[C@H](Cc1ccc2ccccc2c1)C(=O)O; β3hV = CC(C)[C@H](N)CC(=O)O; β3hP = O=C(O)C[C@@H]1CCCN1; Nle = CCCC[C@H](N)C(=O)O

Key:
[1] = tested on: urethane-anesthetized rats; test: Cardiovascular activity of melanocortin peptides (MAP, heart rate, ECG); settings: for Peak Heart Rate Response (BPM) / Peak MAP Response (Δ mm Hg) / Duration: n = 5; for cardiovascular and behavioral side effects (in words): rats
Experimental: These studies were performed in urethane-anesthetized rats, since anesthesia is required for six-lead ECG monitoring. […] Initial selection of doses was guided by FDA exploratory IND studies with a recommendation for at least a 100-fold excess of the human dose.

[2] = tested on: LPS-induced cachexia in rats; test: Lipopolysaccharide (LPS)-induced cachexia assay; assay type: in vivo, rat; settings: for blood-brain barrier transport (concluded from peripheral vs ICV activity) / anti-cachectic activity after ICV (IVt) administration (in words): LPS model; for peripheral (IP) anti-cachexia activity, feeding (in words): peripheral / intraperitoneal administration after LPS; for anti-cachectic activity after ICV (IVt) administration (in words): intracerebroventricular administration
Experimental: The LPS model uses rats were maintained on a 12 h light/dark schedule with ad libitum access to food and water. Animals were handled daily for a minimum of three consecutive days to decrease non-specific handling stress. On the day of the experiment, individually housed animals received intraperitoneal injections of LPS dissolved in 0.5% low-endotoxin BSA, 0.9% saline or 0.5% BSA in 0.9% saline alone, and were returned to their home cage. The drug or control was administered (ICV, IP, or PO, depending on the type of study) 1-hour after LPS injection.
In the experiments described herein, a series of melanocortin receptor antagonist peptides were examined in a bacterial endotoxin inducing cachexia assay. For this assay, a rat is challenged with a single peripheral injection of lipopolysaccharide (LPS). LPS is a heat-stable lipo-polysaccharide, the major component of the outer membrane (capsule) of gram negative bacteria. In non-capsulated strains, it appears as a cell surface […]. LPS produces a strong immune response, including secretion of the proinflammatory cytokines Tumor Necrosis Factor α (TNFα) and interleukin-1 (IL-1). Proinflammatory cytokines are known factors that induce cachexia.
Rats are maintained on a 12-hour light/dark cycle. Animals are handled daily for a minimum of 5 consecutive days to acclimate them to the handling required for the experiment. […] On the day of the experiment, individually housed animals receive intraperitoneal (IP) injections of LPS dissolved in 0.5% low-endotoxin BSA, 0.9% saline or 0.5% BSA in 0.9% saline alone, and returned in their home cage. Melanocortin receptor antagonist peptides were administered (IP or by gavage, depending on the type of study) one hour after the LPS injection. The extent of cachexia is measured by the reduction in food intake, measured every two hours. The cachexia typically lasts only a single day. However, rats lose up to 5% of their body weight during a 12-hour light cycle, making up this loss plus food needed for normal growth during the 12-hour dark cycle. Thus, failure to eat appropriately during a single dark cycle is determinable from the animal's weight and any changes thereof.
A series of melanocortin receptor antagonist peptides were examined in a bacterial toxin inducing cachexia assay. In this assay, a rat was challenged with a single peripheral injection of lipopolysaccharide (LPS), a bacterial toxin that rapidly induces acute cachexia. The extent of cachexia was measured as a reduction in food intake, measured every two hours. The cachexia typically lasts only a single day.

Lewis sarcoma rat model = Lewis sarcoma rat model of cancer cachexia; assay type: in vivo
Experimental: This sarcoma is an aggressive form of cancer that produces significant cachexia. Popp et al., Cancer 49(6): 1212-1220 (1982). In the protocol, “treatment” began 8-days after tumor implantation, with a significant decrease in food intake from baseline. Body composition was determined by NMR prior to tumor implantation, and on the final day of the experiment after tumor resection, by ECHO MRI (NMR). Tumor implantation produces cachexia on or about the 6th day. Melanocortin drug therapy or saline was begun after day 8 and continued through day 12.
Prior to tumor implantation, both groups (drug or saline) had similar food intake (˜14 g/day). See FIGS. 2A and B. After tumor implantation, in saline-treated/tumor bearing controls, food intake decreased 35% to 9 g/day by day 8. FIGS. 3A-F. However, treatment with TCMCB01 reversed anorexia to a food intake similar to the control state.

Compound: Ac-Nle-c[Asp-His-D-Nal(2′)-Arg-Trp-Lys]-NH2 [SHU9119]
- Peak Heart Rate Response (BPM) ([1]; 250 nmol): 3 ± 14 BPM
- Peak MAP Response (Δ mm Hg) ([1]; 250 nmol): 16 ± 5 mm Hg

- blood-brain barrier transport (concluded from peripheral vs ICV activity) [2]: only has blood-brain barrier transport
Compound: CCCC[C@H](NC(C)=O)C(=O)N[C@H]1CC(=O)NCCCC[C@@H](C(=O)N2CCC[C@@H]2C(=O)N[C@@H](C(N)=O)C(C)C)NC(=O)[C@H](Cc2c[nH]c3ccccc23)NC(=O)[C@H](CCCNC(=N)N)NC(=O)[C@@H](Cc2ccc3ccccc3c2)NC(=O)[C@@H]2CCCN2C1=O [TCMCB02, Ac-Nle-c[Asp-Pro-D-Nal(2′)-Arg-Trp-Lys]-D-Pro-D-Val-NH2] (Ac-[Nle]DP[d2Nal]RWK[dP][dV]-NH2; lactam 2-7 (inferred))
- cardiovascular and behavioral side effects (in words) [1]: no cardiovascular or dose-limiting behavioral side effects

Compound: Ac-Ser-Tyr-Nle-Glu-His-D-Phe-Arg-Trp-Gly-Lys-Pro-Val-NH2 [MT-I]
- Duration ([1]; 250 nmol): 0 min
- Peak Heart Rate Response (BPM) ([1]; 250 nmol): 0/0 BPM
- Peak MAP Response (Δ mm Hg) ([1]; 250 nmol): 0/0 mm Hg

Compound: CCCC[C@H](NC(C)=O)C(=O)N[C@H]1CC(=O)NCCCC[C@@H](C(=O)O)NC(=O)[C@H](Cc2c[nH]c3ccccc23)NC(=O)[C@H](CCCN=C(N)N)NC(=O)[C@@H](Cc2ccccc2)NC(=O)[C@H](Cc2cnc[nH]2)NC1=O [PT-141, Ac-Nle-c[Asp-His-D-Phe-Arg-Trp-Lys]-COOH]
- Duration ([1]; 250 nmol): 140 ± 53 min
- Peak Heart Rate Response (BPM) ([1]; 250 nmol): 44 ± 6 BPM
- Peak MAP Response (Δ mm Hg) ([1]; 250 nmol): 32 ± 6 mm Hg
- lethality ([1]; 900 nmol/kg IV, FIG. 1C): lethal dose
- MAP reached after dosing ([1]; 900 nmol/kg IV, baseline MAP 80 mmHg, then precipitously falling): 140 mmHg
- heart rate course after dosing ([1]; 900 nmol/kg IV, baseline heart rate 312): progressively fell
- ECG tracing (lead 2) finding ([1]; IV 600 nmol/kg, FIG. 1A-B): inverted P-wave

Compound: Ac-Nle-c[Asp-Pro-D-Nal(2′)-Arg-Trp-Lys]-β^2-Val-β^3-Pro-NH2 (Ac-[Nle]DP[d2Nal]RWK[β2Val][β3hP]-NH2; lactam 2-7) [TCMCB08]
- blood-brain barrier transport (concluded from peripheral vs ICV activity) [2]: good blood-brain barrier transport
- oral activity / gastrointestinal transport (in words) ([2]; gavage (intra-gastric) administration, LPS cachexia): not as much oral activity as TCMCB07; also recorded: no gastrointestinal transport
- peripheral (IP) anti-cachexia activity, feeding (in words) [2]: has peripheral activity

Compound: Ac-Nle-c[Asp-Pro-D-Nal(2′)-Arg-Trp-Lys]-D-Val-D-Pro-OH (Ac-[Nle]DP[d2Nal]RWK[dV][dP]-OH; lactam 2-7) [TCMCB07A]
- peripheral (IP) anti-cachexia activity, feeding (in words) [2]: equivalent stimulation of feeding

Compound: Ac-Nle-c[Asp-Pro-D-Nal(2′)-Arg-Trp-Lys]-D-Thr-D-Pro-D-Thr (Ac-[Nle]DP[d2Nal]RWK[dT][dP][dT]; lactam 2-7) [TCMCB01]
- Duration ([1]; 600 nmol): 0 min
- Peak Heart Rate Response (BPM) ([1]; 600 nmol): 0/0 BPM
- Peak MAP Response (Δ mm Hg) ([1]; 600 nmol): 0/0 mm Hg
- cardiovascular and behavioral side effects (in words) [1]: no cardiovascular or dose-limiting behavioral side effects; also recorded: little cardiovascular activity
- reversal of cachexia-anorexia (food intake) (Lewis sarcoma rat model; ICV, one time per day, 2 nmol, after day 8 through day 12): reversed the cachexia-anorexia of the tumor burden
- dose producing the feeding effect relative to that used with previous synthetic melanocortin antagonists (Lewis sarcoma rat model; Lewis model): one tenth
- body weight after tumor implantation (Lewis sarcoma rat model; drug treated group vs saline controls, FIG. 4): significantly greater than saline controls
- tumor weight (Lewis sarcoma rat model; equivalent in saline-treated and drug-treated group (p=0.2), FIG. 5): ~40 g
- anti-cachectic response compared with AGRP and SHU9119 (Lewis sarcoma rat model; food intake, Lewis sarcoma rats, FIG. 3): as potent as the natural melanocortin system inhibitor Agouti Related Protein (AGRP), and significantly more potent than SHU9119; also recorded: equivalent to AGRP
- anti-cachectic effect greater than AGRP (Lewis sarcoma rat model; related study (not shown), Lewis model): ~20%
- lean body mass (NMR after tumor excision) (Lewis sarcoma rat model; statistical significance only p=0.05, FIG. 6): increased lean body mass
- blood-brain barrier transport (concluded from peripheral vs ICV activity) [2]: insufficient blood brain barrier-transport; also recorded: no blood-brain barrier transport
- anti-cachectic activity compared to the parent compound, PG932 ([2]; Lewis sarcoma rat model and LPS model): enhanced anti-cachectic activity
- anti-cachectic activity after ICV (IVt) administration (in words) [2]: only produced an anti-cachexia effect when given by IVt administration
- peripheral (IP) anti-cachexia activity, feeding (in words) [2]: did not have peripheral activity

Compound: Ac-Nle-c[Asp-Pro-D-Nal(2′)-Arg-Trp-Lys]-β^3-Pro-β^3-Pro-NH2 (Ac-[Nle]DP[d2Nal]RWK[β3hP][β3hP]-NH2; lactam 2-7; SMILES CCCC[C@H](NC(C)=O)C(=O)N[C@H]1CC(=O)NCCCC[C@@H](C(=O)N2CCC[C@H]2CC(=O)N2CCC[C@H]2CC(N)=O)NC(=O)[C@H](Cc2c[nH]c3ccccc23)NC(=O)[C@H](CCCNC(=N)N)NC(=O)[C@@H](Cc2ccc3ccccc3c2)NC(=O)[C@@H]2CCCN2C1=O) [TCMCB10]
- blood-brain barrier transport (concluded from peripheral vs ICV activity) [2]: failure to cross the blood-brain barrier
- anti-cachectic activity after ICV (IVt) administration (in words) [2]: maintaining direct inhibitory effects
- peripheral (IP) anti-cachexia activity, feeding (in words) [2]: no peripheral activity

Compound: Ac-Nle-c[D-Asp-Pro-D-Nal(2′)-Arg-Trp-D-Lys]-D-Pro-D-Val-NH2 (Ac-[Nle][dD]P[d2Nal]RW[dK][dP][dV]-NH2; lactam 2-7) [TCMCB04]
- blood-brain barrier transport (concluded from peripheral vs ICV activity) [2]: eliminated blood brain barrier transport; also recorded: no transport across the blood-brain barrier
- anti-cachectic activity after ICV (IVt) administration (in words) [2]: superior anti-cachectic activity compared to the parent compound
- peripheral (IP) anti-cachexia activity, feeding (in words) [2]: No difference was observed between the peptide and saline

Compound: Ac-Nle-c[Asp-Pro-D-Nal(2′)-Arg-Trp-Lys]-β^3-Pro-β^3-Val-NH2 (Ac-[Nle]DP[d2Nal]RWK[β3hP][β3hV]-NH2; lactam 2-7) [TCMCB06]
- food intake, 24 hours after LPS challenge ([2]; 0.2 mg/kg intraperitoneally, FIG. 8A): ate significantly less food than the other drug candidates
- body weight (percent of pre-LPS baseline), 24 hours after LPS challenge ([2]; 0.2 mg/kg intraperitoneally, FIG. 8B): no weight gain
- molar activity relative to TCMCB02 ([2]; ICV administration, LPS-induced cachexia): 10 fold
- anti-cachectic activity after ICV (IVt) administration (in words) [2]: molar activity equivalent to TCMCB02
- peripheral (IP) anti-cachexia activity, feeding (in words) [2]: only TCMCB05 (β^3-Pro-β^2-Val) had IP anti-cachexia activity; also recorded: only TCMCB05 had peripheral anti-cachexia activity

Compound: Ac-Nle-c[Asp-Pro-D-Nal(2′)-Arg-Trp-Lys]-β^3-Val-β^3-Pro-NH2 (Ac-[Nle]DP[d2Nal]RWK[β3hV][β3hP]-NH2; lactam 2-7) [TCMCB09]
- peripheral (IP) anti-cachexia activity, feeding (in words) [2]: inactive peripherally

Compound: Ac-Nle-c[Asp-His-D-Nal(2′)-Arg-Trp-Lys]-D-Pro-D-Val-NH2 (Ac-[Nle]DH[d2Nal]RWK[dP][dV]-NH2; lactam 2-7; SMILES CCCC[C@H](NC(C)=O)C(=O)N[C@H]1CC(=O)NCCCC[C@@H](C(=O)N2CCC[C@@H]2C(=O)N[C@@H](C(N)=O)C(C)C)NC(=O)[C@H](Cc2c[nH]c3ccccc23)NC(=O)[C@H](CCCNC(=N)N)NC(=O)[C@@H](Cc2ccc3ccccc3c2)NC(=O)[C@H](Cc2c[nH]cn2)NC1=O) [TCMCB03]
- blood-brain barrier transport (concluded from peripheral vs ICV activity) [2]: failed to cross the blood brain barrier; also recorded: less blood-brain barrier transport activity
- anti-cachectic activity after ICV (IVt) administration (in words) [2]: enhanced anti-cachexia; also recorded: superior anti-cachexia activity following ICV administration
- peripheral (IP) anti-cachexia activity, feeding (in words) [2]: did not possess as good peripheral
